Experimental findings from patent publication US11389501B1, “Method for treating eye inflammation using anti-inflammatory composition having bioactive compound” (TCI CO., LTD., priority 2021, dated 2022) are described below.

Structures are written as SMILES.

Common to all, as to assay type: cell-based
The subject of assay [1] is VEGFA gene. Put plainly: qRT-PCR of VEGFA gene expression in blue light-irradiated human retinal pigment epithelial cells. The settings on record: ARPE-19 cells, 0.0125 mg/ml, incubated 24 h, then blue light 15 min; control group = 100%, comparative group (blue light only) 109.47%. From the text:
(§1) In the present embodiment, an RNA extraction kit, a reverse transcriptase, and a KAPA SYBR® FAST qPCR reagent kit were used in conjunction with a quantitative PCR instrument to determine the changes in expression level of the genes associated with eye protection and anti-inflammation in human retinal pigment epithelial cells treated with the peptide having the amino acid sequence of SEQ ID NO.: 1. Further, the efficacy of the bioactive compound obtained from the cowhide peptides of the present disclosure in resisting blue light and preventing inflammatory reactions was confirmed.
(§2) 1. Cell strain: Human retinal pigment epithelial cell ARPE-19 (purchased from ATCC, product number CRL-2302). […]
(§3) The cell membranes of each group of human retinal pigment epithelial cells (i.e., the control group, the comparative group, and the experimental group) resulted from the cell treatment stage were broken with cell lysates. […] Then the cDNA of each group was subjected to a quantitative real-time reverse transcription polymerase chain reaction (qRT-PCR) using the ABI StepOnePlus™ Real-time PCR system (Thermo Fisher Scientific), KAPA SYBR FAST (Sigma, USA, product number 38220000000) and the primers listed in Table 3 (SEQ 1D NO.: 2 to SEQ ID NO.: 9) to assess the expression of VEGFA gene. […] Gene quantification was performed using a 2^−ΔCt method. […]

In assay [2] the test system is IL-1β gene. Put plainly: qRT-PCR of IL-1β gene expression in blue light-irradiated human retinal pigment epithelial cells. Conditions: ARPE-19 cells, 0.0125 mg/ml, incubated 24 h, then blue light 15 min; control group = 100%, comparative group (blue light only) 109.21%.
Description: as §1, §2, §3
On the technique in general: Real-time PCR tracks product formation cycle by cycle.

The test system of assay [3] is IL-8 gene. Kind of assay: qRT-PCR of IL-8 gene expression in blue light-irradiated human retinal pigment epithelial cells. Conditions: ARPE-19 cells, 0.0125 mg/ml, incubated 24 h, then blue light 15 min; control group = 100%, comparative group (blue light only) 121.77%.
Description: as §1, §2, §3

As for `CC(C)C[C@H](NC(=O)[C@H](CO)NC(=O)[C@@H](NC(=O)[C@@H]1CCCN1C(=O)[C@H](CC(C)C)NC(=O)CNC(=O)[C@H](CO)NC(=O)[C@@H]1CCCN1C(=O)[C@H](CC(C)C)NC(=O)[C@H](CCCCN)NC(=O)C(N)C(C)O)C(C)C)C(=O)O` (stereo partly drawn) [cowhide peptide, TKLPSGLPVSL], in assay [1], the “expression of VEGFA gene relative to the control group” value worked out at 84.07%. Further, the “expression of IL-1β gene relative to the control group” value in assay [2] is reported as 66.36%. For the same molecule, the “expression of IL-8 gene relative to the control group” value in assay [3] was 88.29%.
